Test results published in US4554289A, “OF4949” (Takara Shuzo Co., Ltd., priority 1982, dated 1985).

How the values were obtained:
[1] = tested on: cellular immunity (delayed type hypersensitivity to sheep erythrocytes); experiment: Delayed type hypersensitivity (DTH) to sheep erythrocytes, hind paw edema (cellular immunity); type: in vivo, CDF1 strain female mice; conditions: for Thickness of Edema (Mean Value ± Standard Error): hind paw, 24 hours after challenge; for Potentiating Ratio to Control: control = 100
Method: Thus, sheep erythrocytes are used as antigen and 1×10^5 of them are subjected to intravenous injection to CDF1 strain female mice of 10 weeks of age (8 mice per group) and, immediately after the sensitization, a solution of OF4949 or derivatives thereof in a sterilized water is injected intraperitoneally with dosages of 5, 50 or 500 μg/kg and, after four days, 10^8 sheep erythrocytes are injected subcutaneously into left hind paws of the mice. After 24 hours, the degree of edema, i.e. thickness of the paws at that time, observed at the hind paws is measured using a slide calipers.

[2] = Neutral, acidic or basic properties; type: physicochemical
[3] = Solubilities; type: physicochemical
[4] = tested on: ICR strains of mice; experiment: Acute toxicity test, 300 mg/kg intraperitoneally; type: in vivo
Method: The compounds of the present invention are also characterized by a very low toxicity, making their administration to humans and animals facile. Acute toxicity tests injecting 300 mg/kg intraperitoneally of representative compounds of the present invention to ICR strains of mice produced the toxicity results set forth in Table 9 below: […]

[5] = in methyl alcohol and ethyl alcohol
[6] = in n-propyl alcohol, n-butyl alcohol, acetone, ethyl acetate, chloroform, ether, benzene, and hexane
[7] = in water, alkaline water, and dimethyl sulfoxide

Structure (SMILES)	Thickness of Edema (Mean Value ± Standard Error) ([1]; 5 μg/kg intraperitoneally)	Potentiating Ratio to Control ([1]; 5 μg/kg intraperitoneally)	Thickness of Edema (Mean Value ± Standard Error) ([1]; 50 μg/kg intraperitoneally)	Potentiating Ratio to Control ([1]; 50 μg/kg intraperitoneally)	Thickness of Edema (Mean Value ± Standard Error) ([1]; 500 μg/kg intraperitoneally)	Potentiating Ratio to Control ([1]; 500 μg/kg intraperitoneally)	Neutral, acidic or basic properties [2]	Solubility [3, 5]	Solubility [3, 6]	Solubility [3, 7]	Acute toxicity test result [4]
NC1Cc2ccc(O)c(c2)Oc2ccc(cc2)CC(C(=O)O)NC(=O)C(C(O)C(=O)O)NC1=O (stereo not drawn) [Compound 2]	9.3 ± 1.2 × 0.1 mm	116%	9.1 ± 1.1 × 0.1 mm	114%	10.2 ± 0.9 × 0.1 mm	128%	–	–	–	–	–
COc1ccc2cc1Oc1ccc(cc1)CC(C(N)=O)NC(=O)C(C(O)C(N)=O)NC(=O)C(N)C2 (stereo not drawn) [Compound 17]	8.8 ± 0.7 × 0.1 mm	126%	8.4 ± 0.7 × 0.1 mm	120%	8.5 ± 0.7 × 0.1 mm	121%	–	–	–	–	–
COc1ccc2cc1Oc1ccc(cc1)CC(C(=O)O)NC(=O)C(C(O)C(=O)O)NC(=O)C(N)C2 (stereo not drawn) [Compound 18]	8.2 ± 0.7 × 0.1 mm	117%	8.5 ± 0.7 × 0.1 mm	121%	7.5 ± 0.6 × 0.1 mm	107%	–	–	–	–	–
COc1ccc2cc1Oc1ccc(cc1)CC(CO)NC(=O)C(C(O)CO)NC(=O)C(N)C2 (stereo not drawn) [Compound 21]	7.8 ± 0.8 × 0.1 mm	111%	7.8 ± 0.7 × 0.1 mm	111%	8.7 ± 0.8 × 0.1 mm	124%	–	–	–	–	–
NC(=O)C(O)C1NC(=O)C(N)Cc2ccc(O)c(c2)Oc2ccc(cc2)CC(C(=O)O)NC1=O (stereo not drawn) [OF4949-II]	11.7 ± 1.9 × 0.1 mm	127%	13.5 ± 1.2 × 0.1 mm	147%	11.4 ± 2.6 × 0.1 mm	124%	amphoteric	hardly soluble	insoluble	soluble	–
COc1ccc2cc1Oc1ccc(cc1)CC(C(=O)O)NC(=O)C(C(O)C(N)=O)NC(=O)C(N)C2 (stereo not drawn) [OF4949-I]	9.5 ± 0.6 × 0.1 mm	132%	11.7 ± 1.5 × 0.1 mm	163%	9.1 ± 0.5 × 0.1 mm	126%	amphoteric	hardly soluble	insoluble	soluble	No toxicity is observed
